Results taken from patent US8143403B2 (Bristol-Myers Squibb Company, priority 2008, dated 2012).
Marks after values point to notes of the source that are not given here.

How the values were obtained:
Human CGRP Receptor = biological target: T1, Human CGRP Receptor (Homo sapiens, UniProt O60894+Q16602); experiment: Radioligand binding assay, [125I]-CGRP displacement on SK-N-MC membranes; conditions: displacement of [125I]-CGRP (18 pM final), 2 h room temperature
T1 construct: Crude membranes were prepared from SK-N-MC cells expressing CGRP receptors; endogenous in cells; host or cells: SK-N-MC cells (crude membranes)
Experimental: Tissue Culture. SK-N-MC cells were grown at 37° C. in 5% CO2 as a monolayer in medium consisting of MEM with Earle's salts and L-glutamine (Invitrogen) supplemented with 10% fetal bovine serum (Invitrogen).
Membrane Preparation. Crude membranes were prepared from SK-N-MC cells expressing CGRP receptors. The cells were rinsed twice with phosphate-buffered saline (155 mM NaCl, 3.3 mM Na2HPO4, 1.1 mM KH2PO4, pH 7.4), and incubated for 5-10 min. at 4° C. in hypotonic lysis buffer consisting of 10 mM Tris (pH 7.4) and 5 mM EDTA. The cells were transferred from plates to polypropylene tubes (16×100 mm) and homogenized using a polytron. Homogenates were centrifuged at 32,000×g for 30 min. The pellets were resuspended in cold hypotonic lysis buffer with 0.1% mammalian protease inhibitor cocktail (Sigma) and assayed for protein concentration. The SK-N-MC homogenate was aliquoted and stored at −80° C. Radioligand Binding Assay. The compounds of invention were solubilized and carried through serial dilutions using 100% DMSO. Aliquots from the compound serial dilutions were further diluted 25 fold into assay buffer (50 mM Tris-Cl pH 7.5, 5 mM MgCl2, 0.005% Triton X-100) and transferred (volume 50 μl) into 96 well assay plates. [^125I]-CGRP (GE Healthcare or Perkin-Elmer) was diluted to 72 pM in assay buffer and a volume of 50 μl was added to each well. SK-N-MC membranes were thawed, diluted in assay buffer with fresh 0.1% mammalian protease inhibitor cocktail (Sigma), and re-homogenized. SK-N-MC homogenate (7 μg/well) was added in a volume of 100 μl. The assay plates were then incubated at room temperature for 2 h. Assays were stopped by addition of excess cold wash buffer (50 mM Tris-Cl pH 7.5, 0.1% BSA) immediately followed by filtration over glass fiber filters (Whatman GF/B) previously soaked in 0.5% PEI. Non-specific binding was defined with 1 μM beta-CGRP (Bachem). Protein bound radioactivity was determined using a gamma or scintillation counter. The resulting data was analyzed using a four parameter competitive binding equation (XLfit v2.0) and the IC50 was defined as the concentration of a compound of invention required to displace 50% of radioligand binding. Final assay concentration of [^125I]-CGRP was 18 pM. […] All compounds of invention were evaluated in at least two separate experiments.

[1] = system: CGRP-induced increase in laser Doppler facial blood flow; experiment: Inhibition of CGRP-induced increase in laser Doppler facial blood flow in non-human primate; type: in vivo, common marmoset (Callithrix jacchus); conditions: pretreat −30 min, hαCGRP 10 μg/kg i.v.
Experimental: FIG. 4. […] Data are peak % change from baseline±sem, with each animal serving as its own control.
Saturation/Scatchard Analysis. […] Saturation data were analyzed using a one site binding equation to estimate apparent equilibrium dissociation constant (Kd) and the maximum number of binding sites (Bmax) (Prizm v4.0, Graphpad). […] Functional Antagonism/Schild analysis. Agonist stimulation of CGRP receptor complex leads to cyclic AMP (adenosine 3′5′-cyclic monophosphate) production via Gs-dependent activation of an adenylate cyclase (Juaneda C et al., TiPS, 2000; 21:432-438). Consequently, CGRP receptor antagonists inhibit CGRP-induced cyclic AMP formation in SK-N-MC cells which natively express the CGRP receptor complex (Doods H et al., Br J Pharmacol, 2000; 129(3):420-423). […] A Schild analysis format was used, which allowed investigation of the mechanism of antagonism. […] Various concentrations of CGRP were added and the cells were allowed to incubate 30 min at room temperature. The cells were lysed with lysis reagent and cAMP concentrations were determined by HTRF according to the manufacturer's instructions. A standard curve using known quantities of cAMP was evaluated in parallel to allow conversion of HTRF ratio to nM cAMP. The resulting curves were then evaluated using a Gaddum/Schild equation individually and with global fitting (Prizm v4.0, Graphpad). […] To obtain a global fit the following parameters were shared (top, bottom, logEC50, Hill slope and pA2) and all curves were fit simultaneously. […] Non-Terminal Method for Assessing In Vivo Efficacy of Small Molecule CGRP-Receptor Antagonists in Mammals Overview. […] Non-human primates (e.g., marmosets) are the only animals known to have human-like CGRP receptor pharmacology conferred by the presence of the specific amino acid residue (Trp74) in their RAMP1 sequence which is responsible for the phenotype of the human receptor (Mallee et al. J Biol Chem 2002 277:14294). Since current migraine models primarily use rats (Escott et al. Brain Res 1995 669:93; Williamson et al. Cephalalgia 1997 17:525), or are invasive, terminal procedures in primates (Doods et al. Br J Pharmacol 2000 129:420), a novel non-invasive, survival model in non-human primates for in vivo efficacy assessment of CGRP-receptor antagonists was developed. […] Peptide and small-molecule CGRP-receptor antagonists were used to validate the non-human primate model. […] Animals. Adult male and female common marmosets (Callithrix jacchus) purchased from Harlan and weighing 350-550 g served as subjects. Anesthesia & Surgical Preparation. Animals are anesthetized by isoflurane inhalation in an induction chamber (4-5% rapid induction, maintained with 1-2.5%; Solomon et al., 1999).

T1 sequence (Q16602 23-461): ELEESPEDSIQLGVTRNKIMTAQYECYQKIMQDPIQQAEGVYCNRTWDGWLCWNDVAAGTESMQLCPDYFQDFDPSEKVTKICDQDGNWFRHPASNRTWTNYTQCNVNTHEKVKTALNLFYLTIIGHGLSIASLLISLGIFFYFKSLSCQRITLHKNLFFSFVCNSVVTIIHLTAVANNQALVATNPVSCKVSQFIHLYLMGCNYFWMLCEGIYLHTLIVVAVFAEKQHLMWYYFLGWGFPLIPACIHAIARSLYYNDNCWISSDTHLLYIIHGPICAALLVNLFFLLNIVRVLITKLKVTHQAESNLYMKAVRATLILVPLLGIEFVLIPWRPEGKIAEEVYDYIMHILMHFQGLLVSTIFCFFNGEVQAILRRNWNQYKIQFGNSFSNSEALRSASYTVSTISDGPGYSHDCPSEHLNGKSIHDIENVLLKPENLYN
T1 sequence (O60894 27-148): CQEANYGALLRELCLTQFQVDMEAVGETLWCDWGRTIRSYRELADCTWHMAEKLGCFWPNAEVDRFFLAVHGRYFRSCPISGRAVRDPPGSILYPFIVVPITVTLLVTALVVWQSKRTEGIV

O=C(O[C@@H]1CC[C@@H](c2cccc(F)c2F)Cc2cccnc21)N1CCC(n2c(=O)[nH]c3ncccc32)CC1 [Example 20]
IC50 (Human CGRP Receptor): 0.12 nM
% Inhibition ([1]; 0.1 mg/kg s.c., 15 min): 9.9%
% Inhibition ([1]; 0.1 mg/kg s.c., 60 min): −6.7%
% Inhibition ([1]; 0.1 mg/kg s.c., 105 min): −4.9%
% Inhibition ([1]; 0.3 mg/kg s.c., 15 min): 28.8%
% Inhibition ([1]; 0.3 mg/kg s.c., 60 min): 27.6* %
% Inhibition ([1]; 0.3 mg/kg s.c., 105 min): 41.2* %
% Inhibition ([1]; 3 mg/kg s.c., 15 min): 26.5%
% Inhibition ([1]; 3 mg/kg s.c., 60 min): 36.7* %
% Inhibition ([1]; 3 mg/kg s.c., 105 min): 39.0* %
% Inhibition ([1]; 7 mg/kg s.c., 15 min): 25.1%
% Inhibition ([1]; 7 mg/kg s.c., 60 min): 53.9* %
% Inhibition ([1]; 7 mg/kg s.c., 105 min): 70.0* %
